6 molecules from patent US20050118310A1, “Formulations of compounds derived from natural sources and their use with irradiation for food preservation” (priority 2001, published 2005) can be followed below.

Marks after values point to notes of the source that are not given here.

The test system of test [1] is S. typhi. Briefly: MIC (D10 %) of active compounds in ground beef, S. typhi. Format: cell-based, Salmonella typhi (ATCC 19430). The settings on record: non-irradiated ground beef, 10^5 CFU/g, stored at 4° C. for 24 hours; % w/w or v/w. On the procedure: (§1) Escherichia coli (ATCC 25922) and Salmonella typhi (ATCC 19430) were obtained from the American Type Culture Collection (Rockville, Md., USA) and maintained at −80° C. in Tryptic Soy Broth (TSB; Difco Laboratory, Detroit, Mich.) containing glycerol (10%; v/v). Before each experiment, stock cultures were subcultured through two consecutive 24 h growth cycles in TSB at 35° C. to obtain working cultures containing approximately 10^9 UCF/ml for E. coli and S. typhi.
(§2) Samples were homogenised for 2 min in sterile peptone water (0.1%) using a Lab-blender 400 stomacher (Laboratory Equipment, London, UK). From this mixture, serial dilutions were prepared and appropriate ones were pour-plated in tryptic soy agar (TSA) (Difco, Laboratories, Detroit, Mich., USA) and incubated at 35° C., 24 hours for the numeration of E. coli and S. typhi.
(§3) D10 deteriiination: The kinetics of bacteria destruction by irradiation with or without the active compounds and under different packaging conditions was evaluated by linear regression. Bacterial counts (log CFU/ml) were plotted against irradiation doses or compound concentrations and the D10 values were calculated using SigmaPlot program. Statistical analysis was done using SPSS program. The Duncan test was used with a probability of 0.05.
(§4) The MIC values for the active compounds were determined on the basis of their antibacterial effectiveness in meat. Concentrations retained were those to reduce by 1 log CFU the population of E. coli or S. typhi in ground beef. Ground beef samples weighing 200 g were contaminated with working cultures of E. coli or S. typhi to obtain a final concentration of 10^5 CFU/g. The ground beef samples containing micro-organisms was mixed during 3 minutes at medium speed in a 4L-conmmercial blender (Waring Products, New Hartford, Col., USA) and different concentrations of the active compounds were incorporated, followed by another 3 minutes period mixing. Sterile petri plates (60×15 mm) were filled with ground beef samples containing micro-organisms and different concentrations of active compounds in portion of 25 g each and stored at 4° C. for 24 hours.
(§5) In addition to the above compounds, minimal concentrations of different types of commercial Herbalox® and Duralox® required to reduce by 1 log the bacterial population of E. coli in ground beef were evaluated. […] However, an estimation of the minimal concentration was calculated using the slope of the curve.

Test [2] has as its system E. coli. Briefly: MIC (D10 %) of active compounds in ground beef, E. coli. Format: cell-based, Escherichia coli (ATCC 25922). Particulars: non-irradiated ground beef, 10^5 CFU/g, stored at 4° C. for 24 hours; % w/w or v/w. The procedure: as §1, §2, §3, §4, §5
In test [3] the test system is Six pathogenic and spoilage bacteria, commonly found in meat and meat products. Put plainly: MIC in artificial culture media (1 log reduction). The format is cell-based. The procedure:
The concentration ot each active compound added to the meat samples was based on results obtained in a previous experiment. These concentrations represent the minimum inhibitory concentrations (MIC) of the active compounds required to be present in artificial culture media in order to reduce by 1 log the number of bacteria in culture. Six pathogenic and spoilage bacteria, commonly found in meat and meat products, were tested. […] The concentration used for carnosine (1.0%) was selected from the literature (Sebranek, 1999). The concentrations of BHA (0.01%), BHT (0.01%), EDTA (100 ppm), and tetrasodium pyrophosphate (0.1%) corresponded to the concentrations recommended by the Canadian Food Inspection Agency (CFIA).
This value was detennined by testing six pathogenic and spoilage bacteria, commonly found in meat and meat products.

In test [4] the test system is S. typhi. Put plainly: Irradiation sensitivity (D10) of S. typhi in ground beef. Format: cell-based, Salmonella typhi (ATCC 19430).
Test [5] relates to E. coli. Briefly: Irradiation sensitivity (D10) of E. coli in ground beef. Format: cell-based, Escherichia coli (ATCC 25922).
Test [6] concerns S. typhi. Put plainly: Irradiation sensitivity of S. typhi in chicken breast. Format: cell-based, Salmonella typhi (ATCC 19430).
Test [7] has as its system E. coli. Briefly: Irradiation sensitivity of E. coli in chicken breast. Format: cell-based, Escherichia coli (ATCC 25922). The settings on record: trans-cinnamaldehyde 0.050%, thymol 0.038%, tetrasodium pyrophosphate 0.003%, carvacrol 0.029%.
Setting [8] is: ground beef, air, 4° C., lower concentration: tannic acid 0.38%, nisin 625 UI/g, EDTA 100 ppm, carvacrol […], tetrasodium pyrophosphate 0.1%, trans-cinnamaldehyde […], thymol 0.1%, thyme 0.2%, BHT 0.01%, BHA 0.01%, rosemary 0.5%, carnosine 1.0%, ascorbic acid 0.5%.
Setting [9] is: vs control, ground beef, air, 4° C., tannic acid 0.38%, nisin 625 UI/g, EDTA 100 ppm, carvacrol […], tetrasodium pyrophosphate 0.1%, trans-cinnamaldehyde […], thymol 0.1%, thyme 0.2%, BHT 0.01%, BHA 0.01%, rosemary 0.5%, carnosine 1.0%, ascorbic acid 0.5%.
Where [10] appears, read: ground beef, air, 4° C., lower concentration: thymol 0.1%, tannic acid 0.38%, rosemary 0.5%, BHT 0.01%, trans-cinnamaldehyde […], carvacrol […], thyme 0.2%, BHA 0.01%, nisin 625 UI/g, EDTA 100 ppm, tetrasodium pyrophosphate 0.1%, carnosine 1.0%, ascorbic acid 0.5%.
Where [11] appears, read: vs control, negative = protective effect, ground beef, air, 4° C., thymol 0.1%, tannic acid 0.38%, rosemary 0.5%, BHT 0.01%, trans-cinnamaldehyde […], carvacrol […], thyme 0.2%, BHA 0.01%, nisin 625 UI/g, EDTA 100 ppm, tetrasodium pyrophosphate 0.1%, carnosine 1.0%, ascorbic acid 0.5%.

As for `O=C1O[C@H]([C@@H](O)CO)C(O)=C1O` [Ascorbic acid], in the test on S. typhi [1], the “D10 (%): minimal concentration of active compound required to reduce S. typhi population by 1 log in ground beef” value is on record as 1.83 ± 0.06^ab %. Moreover, in the test with E. coli [2], the “D10 (%): minimal concentration of active compound required to reduce E. coli population by 1 log in ground beef” value is 2.71 ± 0.26^b %. For the same molecule, the “Mean values of MIC (concentration required in artificial culture media to reduce by 1 log the number of bacteria)” value in test [3] is given as 0.5%.

Turning to `O=C(OC[C@H]1O[C@@H](OC(=O)c2cc(O)c(O)c(OC(=O)c3cc(O)c(O)c(O)c3)c2)[C@H](OC(=O)c2cc(O)c(O)c(OC(=O)c3cc(O)c(O)c(O)c3)c2)[C@@H](OC(=O)c2cc(O)c(O)c(OC(=O)c3cc(O)c(O)c(O)c3)c2)[C@@H]1OC(=O)c1cc(O)c(O)c(OC(=O)c2cc(O)c(O)c(O)c2)c1)c1cc(O)c(O)c(OC(=O)c2cc(O)c(O)c(O)c2)c1` [Tannic acid, tannic acid], the “D10 (%): minimal concentration of active compound required to reduce S. typhi population by 1 log in ground beef” value in the test with S. typhi [1] is given as 21.18 ± 2.07^d %. For the same molecule, the “D10 (%): minimal concentration of active compound required to reduce E. coli population by 1 log in ground beef” value with E. coli [2] was 11.15 ± 2.04^c %.

As to nisin, the “D10(kGy)” value is 0.420 ± 0.0040^hi kGy in the test on S. typhi [4] (setting [8]) and 0.120 ± 0.0089^efg kGy with E. coli [5] (setting [10]). Also, the “Increase in Sensitivity” value in the test with S. typhi [4] (setting [9]) stood at 20.2%; in the test on E. coli [5] (setting [11]), 4.8%.

Turning to `O=C(O)CN(CCN(CC(=O)O)CC(=O)O)CC(=O)O` [EDTA], in the test on S. typhi [4], the “D10(kGy)” value was 0.419 ± 0.0198^hi kGy and the “Increase in Sensitivity” value is given as 20.3%. In the test on E. coli [5], the “D10(kGy)” value was 0.127 ± 0.0033^gh kGy and the “Increase in Sensitivity” value was −0.8%.

For the molecule `COc1ccc(O)c(C(C)(C)C)c1` [BHA, butylated hydroxyanisole], the “D10(kGy)” value in the test with S. typhi [4] (setting [8]) is reported as 0.407 ± 0.0123^h kGy; in the test with E. coli [5] (setting [10]), 0.117 ± 0.0026^ef kGy. The “Increase in Sensitivity” value in the test on S. typhi [4] (setting [9]) is 22.6%; in the test on E. coli [5] (setting [11]) it was 7.1%.

`O=P([O-])([O-])OP(=O)([O-])[O-].[Na+].[Na+].[Na+].[Na+]` [Tetrasodium pyrophosphate, tetrasodium pyrophosphate]: the “D10(kGy)” value in the test on S. typhi [6] (chicken breast, 4° C., trans-cinnamaldehyde 0.030%, tetrasodium pyrophosphate 0.003%, carvacrol 0.038%, thymol […]) is listed as 0.520 ± 0.030^b kGy; in the test with E. coli [7] (chicken breast, 4° C.) it was 0.141 ± 0.012^bc kGy. Further, in the test with S. typhi [6] (concentration of 1/30 of the MIC value in ground beef, compared with ground beef at MIC), the “factor by which the effect was reduced in the chicken breast” value was determined as 1.5. For the same molecule, in the test with S. typhi [6] (trans-cinnamaldehyde 0.030%, tetrasodium pyrophosphate 0.003%, carvacrol 0.038%, thymol […]), the “irradiation dose necessary to completely eliminate S. typhi from the chicken breast” value came out at 2.6 kGy. For the same molecule, the “Increase in Sensitivity” value in the test with S. typhi [6] (vs control, chicken breast, trans-cinnamaldehyde 0.030%, tetrasodium pyrophosphate 0.003%, carvacrol 0.038%, thymol […]) turned out to be 19.1%; with E. coli [7] (vs control, chicken breast), 2.7%. Further, the “irradiation dose necessary to completely eliminate E. coli from the chicken breast” value in the test on E. coli [7] stood at 0.75 kGy.
